Patent publication US20190150455A1, “COMPOSITIONS OF SAPONINS AND PLANT EXTRACTS” (Y&B MOTHER'S CHOICE LTD., priority 2016, published 2019)

Test system: E. coli, S. aureus, P. aeruginosa, C. albicans and A. Brasiliensis
Assay: Challenge test, statements on all tested microorganisms together
Format: cell-based
Conditions: non-preserved cream
Protocol: The various lotion or cleansing formulae were contaminated by suitable microorganisms (bacteria and yeast), as described below. The so-prepared samples were incubated as described below. Using serial dilutions and plate counts, aliquots were taken during the incubation period for determining microorganism count. Tested Microorganisms: E. coli (ATCC 8739); S. aureus (ATCC 6538); P. aeruginosa (ATCC 9027); C. albicans (ATCC 10231) and A. Brasiliensis (ATCC 16404)). Bacteria, yeast, and mold suspensions were prepared according to ISO 11930; TSA culture medium for the bacteria was obtained from Hylab (Cat. No PD-087/A); PDA culture medium for A. brasiliensis was obtained from Hylab (Cat. No PD-043); SDA culture medium for C. albicans was obtained from Hylab (Cat. No PD-044); 0.1% peptone was prepared by mixing 1 g/l Peptone in sterile water. The test was performed according ISO 11930. Each sample was contaminated with microorganisms to obtain the range of 10^5-10^6 cfulml. The inoculated formulation was mixed thoroughly to ensure a homogeneous distribution of the inoculum. Samples were stored at 25° C. Each sample was sampled in intervals of 2, 7, 14, 21 and 28 days, according to the following procedure: 100 μl of the inoculated formulation was streaked on suitable agar medium. The plates were incubated at 37° C. for bacteria and 25° C. for yeast and mold. […]

CCCCCCCC(=O)OCC(O)CO (stereo not shown) [glyceryl caprylate]
Antimicrobial activity against the tested microorganisms, in words: improved the antimicrobial activity of the tested formulations
